Test results taken from US20250339391A1, “METHODS FOR EFFECTIVE MANAGEMENT OF PAIN” (South Rampart Pharma, Inc., priority 2024, published 2025).

Tested on: healthy volunteers
Assay: Phase 1 safety and tolerability
Type: in vivo, human
Procedure: A randomized, double-blind, placebo-controlled Phase 1 trial (ClinicalTrials.gov identifier: NCT05484414) was conducted to assess the safety, tolerability, food effect, pharmacokinetics (PK), and pharmacodynamics (PD) of single and multiple ascending doses of SRP-001 (Quotient Sciences, Miami FL USA; FIG. 3H and Online Methods). The trial was conducted in accordance with the International Council for Harmonisation of Technical Requirements for Pharmaceuticals for Human Use (ICH), Guideline for GCP: Consolidated Guidance (E6), attained Institutional Review Board approval, and all applicable regulatory requirements for Phase 1, First in Human clinical trials. Safety measurements and plasma samples to determine PK parameters were collected throughout the study for all subjects and reviewed by the Safety Review Committee. PK stopping criteria were established to assure that systemic exposure to SRP-001 was less than or equal to the systemic exposure achieved at the NOAEL doses in the 28-day repeat-dose toxicology studies in the rat and dog. The trial's Safety Advisory Committee has approved the publication of the Phase 1 results.
A two-part randomized, double-blind, placebo-controlled Phase 1 trial was conducted to assess the safety, tolerability, PK and PD of SRP-001 ascending doses (Quotient Sciences, Miami, FL USA). […]
Safety—Holter (continuous ECG) Monitoring: NHVs also underwent continuous ECG Holter monitoring from at least 1 h prior to dosing until 24 h post-dose, and resulting measurements were monitored consistently. […] Where any scheduled rest times were missed, where there was less than a 10-min rest period, or where the final 5 min of a rest period was interrupted (for example, by subject movement or loss of leads), a protocol deviation was recorded, and the Holter provider was informed. Loss of leads or interruption of the recording outside of the scheduled rest times was not considered a protocol deviation but was recorded in the source. […]

CCN(CC)C(=O)c1ccccc1S(=O)(=O)NCC(=O)Nc1ccc(O)cc1 [SRP-001, N,N-diethyl-2-[[2-(4-hydroxyanilino)-2-oxo-ethyl]sulfamoyl]benzamide]
emesis (Phase 1 MAD cohort): no emesis was reported | safety assessments (vital signs, ECG, laboratory tests) (SAD and MAD cohorts): revealed no abnormalities | tolerability / serious adverse events (oral nanosuspension, SAD and MAD cohorts, 42 subjects on SRP-001): no serious adverse events (SAEs) reported
